According to patent US20200247815A1, “PYRAZOLYL-CONTAINING TRICYCLIC DERIVATIVE, PREPARATION METHOD THEREFOR AND USE THEREOF” (Jiangsu Hansoh Pharmaceutical Group Co., Ltd., priority 2017, published 2020):

Assays:
[1] = tested on: pancreatic cancer tumor cell Mia Paca 2; experiment: Inhibition of tumor cell proliferation (CellTiter-Glo); format: cell-based; details: Homo sapiens, Miapaca-2 cell, 3-7 days
Protocol: The object of this test example is to determine the inhibition effect of the present compound on tumor cell proliferation activity. The inhibition activity of the compound on tumor cell proliferation was determined by CellTiter-Glo method, and the half inhibitory concentration IC50 of the compound for inhibiting cell proliferation activity was obtained, 50-100 μL of tumor cell suspension was inoculated in a 96-well cell culture plate with a density of 1˜5*10^4 cells/ml. The plate was incubated in an incubator for 16˜24 hours (37° C., 5% CO2). Solutions of test compounds at different concentrations obtained by gradient dilution were added to the cells in the plate. The plate was incubated in an incubator for 3-7 days (37° C., 5% CO2), 50˜100 μL of CellTiter-Glo reagent was added to each well. The plate was shaked for 10 minutes, and left to stand at room temperature for 10 minutes. The value of the chemiluminescence signal was determined by a microplate reader. The inhibition rate was calculated from the value of the chemiluminescence signal. IC50 of the compound was obtained by curve fitting based on the inhibition rate at different concentrations.
The inhibition effect of the present compound on pancreatic cancer tumor cell Mia Paca 2 proliferation activity was determined by the test, and the obtained IC50 value is shown in Table 2.

[2] = molecular target: T1, ERK-2 kinase (Homo sapiens, UniProt P28482); experiment: Inhibition of ERK-2 kinase activity (LANCE Ultra TR-FRET); format: biochemical; details: ERK-2 enzyme 0.08 nM, ATP 38.15 μM
T1 construct: purchased Invitrogen PV3313
Protocol: The object of this test example is to determine the inhibition effect of the compound on ERK-2 kinase activity. In vitro ERK-2 kinase analysis was carried out by using LANCE Ultra (Perkin Elmer) method. The reaction (reaction system 10 μL) was conducted by adding 2.5 μL of test compound/DMSO (final 4%, V/V, diluted to 10 concentrations (400 nM to 0.02 nM) using a 1:3 dilution scheme), 5 μL of a mixed solution of ERK-2 enzyme (Invitrogen, # PV3313, final concentration: 0.08 nM) and substrate Ulight-MBP peptide (Perkin Elmer, # TRF0109-M, final concentration: 0.5 μM) formulated with a kinase buffer (50 mM Hepes pH 7.4, 10 mM MgCl2, 1 mM EGTA 0.01% Triton X-100, 2 mM DTT) and 2.5 μL of ATP solution (Invitrogen, # PV3227, final concentration: 38.15 μM) formulated with the same buffer successively to a 384-well plate (Perkin Elmer OPTIPLATE™) and mixing well. The reaction mixture was incubated at room temperature for 60 minutes. The reaction was stopped by adding IX LANCE Detection buffer (PerkinElmer # CR97-100) diluted with ultra-pure water, mM EDTA (Invitrogen #15575038) and 1 nM Eu-anti-p-MBP (PerkinElmer # TRF0201-M) antibody in 10 μL/well. The plate was incubated at room temperature for 60 minutes. Excitation reading was performed on Synergy H1 Hybird Reader, H1MFD (Biotek) with an excitation wavelength of 320 nm. TR-FRET rate was calculated by dividing the acceptor emission signal (signal value at 665 nM) by the Eu donor emission signal (signal value at 615 nM). The inhibition TR-FRET rate of the well treated by the compound was calculated relative to the Max signal (DMSO control) and Min signal (no enzyme added) control wells on the plate {% inhibition rate=100−[(test compound−Min average)]/(Max average−Min average)×100}. The 10 concentrations of the compound after 4-fold dilution of the reaction system were 100 nM to 0.005 nM. Abs_IC50 value was calculated by using GraphPad prism fits percentage inhibition rate and ten-point concentration data in a 4-parameter non-linear logic formula.

[3] = molecular target: T2, ERK-1 kinase (Homo sapiens, UniProt P27361); experiment: Inhibition of ERK-1 kinase activity (LANCE Ultra TR-FRET); format: biochemical; details: ERK1 enzyme 0.4 nM, ATP 38.15 μM
T2 construct: purchased Invitrogen PV3311
Protocol: The object of this test example is to determine the inhibition effect of the compound on ERK-1 kinase activity. In vitro ERK-1 kinase analysis was carried out by using LANCE Ultra (Perkin Elmer) method. The reaction (reaction system 10 μL) was conducted by adding 2.5 μL of test compound/DMSO (final 4%, V/V, diluted to 10 concentrations (400 nM to 0.02 nM) using a 1:3 dilution scheme), 5 μL of a mixed solution of ERK1 enzyme (Invitrogen, # PV3311, final concentration: 0.4 nM) and substrate Ulight-MBP peptide (Perkin Elmer, # TRF0109-M, final concentration: 0.5 μM) formulated with a kinase buffer (50 mM Hepes pH 7.4, 10 mM MgCl2, 1 mM EGTA, 0.01% Triton X-100, 2 mM DTT) and 2.5 μL of ATP solution (Invitrogen, # PV3227, final concentration: 38.15 μM) formulated with the same buffer successively to a 384-well plate (Perkin Elmer OPTIPLATE™) and mixing well. The reaction mixture was incubated at room temperature for 60 minutes. The reaction was stopped by adding 1× LANCE Detection buffer (PerkinElmer # CR97-100) diluted with ultra-pure water, mM EDTA (Invitrogen #15575038) and 1 nM Eu-anti-p-MBP (PerkinElmer # TRF0201-M) antibody in 10 μL/well. The plate was incubated at room temperature for 60 minutes. Excitation reading was performed on Synergy H1 Hybird Reader, H1MFD (Biotek) with an excitation wavelength of 320 nm. TR-FRET rate was calculated by dividing the acceptor emission signal (signal value at 665 nM) by the Eu donor emission signal (signal value at 615 nM). The inhibition TR-FRET rate of the well treated by the compound was calculated relative to the Max signal (DMSO control) and Min signal (no enzyme added) control wells on the plate {% inhibition rate=100−[(test compound−Min average)]/(Max average−Min average)×100}. The 10 concentrations of the compound after 4-fold dilution of the reaction system were 100 nM to 0.005 nM. Abs_IC50 value was calculated by using GraphPad prism fits percentage inhibition rate and ten-point concentration data in a 4-parameter non-linear logic formula.

T2 sequence (P27361 whole entry): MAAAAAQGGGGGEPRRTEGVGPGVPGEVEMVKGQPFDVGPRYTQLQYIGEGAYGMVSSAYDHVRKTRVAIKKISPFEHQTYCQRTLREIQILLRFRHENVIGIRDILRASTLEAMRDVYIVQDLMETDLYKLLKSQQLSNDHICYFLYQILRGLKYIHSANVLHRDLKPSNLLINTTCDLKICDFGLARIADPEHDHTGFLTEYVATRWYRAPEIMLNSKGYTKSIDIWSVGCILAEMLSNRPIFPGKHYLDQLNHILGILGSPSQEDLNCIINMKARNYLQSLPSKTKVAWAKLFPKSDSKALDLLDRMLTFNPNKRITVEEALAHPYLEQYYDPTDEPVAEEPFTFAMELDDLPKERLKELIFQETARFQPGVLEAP
T1 sequence (P28482 whole entry): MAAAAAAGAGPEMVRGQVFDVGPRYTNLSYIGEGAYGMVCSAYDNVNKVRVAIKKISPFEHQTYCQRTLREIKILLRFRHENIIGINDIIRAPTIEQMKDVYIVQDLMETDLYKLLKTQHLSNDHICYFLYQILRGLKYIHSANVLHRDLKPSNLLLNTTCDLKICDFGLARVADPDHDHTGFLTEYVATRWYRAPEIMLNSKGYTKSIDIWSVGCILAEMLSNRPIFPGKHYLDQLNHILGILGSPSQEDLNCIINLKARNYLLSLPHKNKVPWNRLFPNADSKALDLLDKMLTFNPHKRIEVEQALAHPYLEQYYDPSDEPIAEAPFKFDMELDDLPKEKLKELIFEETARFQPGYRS

Structure (SMILES) | IC50 [1] [nM] | IC50 [2] [nM] | IC50 [3] [nM]
Cc1cc(-c2n[nH]c3cc4[nH]c(C(=O)N[C@H](C)c5ccccc5)nc4cc23)ccn1 [Example 36, (R)-3-(2-methylpyridin-4-yl)-N-(1-phenylethyl)-1,7-dihydroimidazo[4,5-f]indazole-6-carboxamide] | 244 | 1.23 | 1.08
O=C(N[C@H](CO)c1cccc(Cl)c1)c1nc2cc3c(-c4ccncc4)n[nH]c3cc2[nH]1 [Example 28, (S)—N-(1-(3-chlorophenyl)-2-hydroxyethyl)-3-(pyridin-4-yl)-1,7-dihydroimidazo[4,5-f]indazole-6-carboxamide] | 202 | 0.1 | 0.1
C[C@@H](NC(=O)c1nc2cc3c(-c4ccncc4)n[nH]c3cc2[nH]1)c1cccc(Cl)c1 [Example 22, (R)—N-(1-(3-chlorophenyl)ethyl)-3-(pyridin-4-yl)-1,7-dihydroimidazo[4,5-f]indazole-6-carboxamide] | 99.4 | 0.17 | 0.26
O=C(N[C@H](CNC1CC1)c1ccccc1)c1nc2cc3c(-c4ccncc4)n[nH]c3cc2[nH]1 [Example 54, (S)—N-(2-(cyclopropylamino)-1-phenylethyl)-3-(pyridin-4-yl)-1,7-dihydroimidazo[4,5-f]indazole-6-carboxamide] | 309 | 0.32 | 0.52
O=C(N[C@H](CO)c1ccccc1)c1nc2cc3c(-c4ccncc4)n[nH]c3cc2[nH]1 [Example 20, (S)—N-(2-hydroxy-1-phenylethyl)-3-(pyridin-4-yl)-1,7-dihydroimidazo[4,5-f]indazole-6-carboxamide] | – | 0.06 | 0.22
COc1ccc(-c2n[nH]c3cc4[nH]c(C(=O)N[C@H](C)c5ccccc5)nc4cc23)cn1 [Example 84, (R)-3-(6-methoxypyridin-3-yl)-N-(1-phenylethyl)-1,7-dihydroimidazo[4,5-f]indazole-6-carboxamide] | – | 0.93 | 2.61
COc1ccc(-c2n[nH]c3cc4[nH]c(C(=O)N[C@H](C)c5ccccc5)nc4cc23)cc1 [Example 95, (R)-3-(4-methoxyphenyl)-N-(1-phenylethyl)-1,7-dihydroimidazo[4,5-f]indazole-6-carboxamide] | – | 2.17 | 4.42
CC(NC(=O)c1nc2cc3c(-c4ccncc4)n[nH]c3cc2[nH]1)c1ccccc1 (stereo not drawn) [Example 11, N-(1-phenylethyl)-3-(pyridin-4-yl)-1,7-dihydroimidazo[4,5-f]indazole-6-carboxamide] | – | 0.29 | 0.64
C[C@@H](NC(=O)c1nc2cc3c(-c4ccncc4)n[nH]c3cc2[nH]1)c1cccc(C2CC2)c1 [Example 88, (R)—N-(1-(3-cyclopropylphenyl)ethyl)-3-(pyridin-4-yl)-1,7-dihydroimidazo[4,5-f]indazole-6-carboxamide] | – | 0.99 | 2.27
C[C@@H](OC(=O)c1nc2cc3c(-c4ccncc4)n[nH]c3cc2[nH]1)c1ccccc1 [Example 35, (R)-1-phenylethyl 3-(pyridin-4-yl)-1,7-dihydroimidazo[4,5-f]indazole-6-carboxylate] | – | 0.75 | 1.54
C[C@@H](NC(=O)c1nc2cc3c(-c4ccncc4)n[nH]c3cc2[nH]1)c1cccc(C(F)(F)F)c1 [Example 16, (R)-3-(pyridin-4-yl)-N-(1-(3-(trifluoromethyl)phenyl)ethyl)-1,7-dihydroimidazo[4,5-f]indazole-6-carboxamide] | – | 0.73 | 1
C[C@@H](NC(=O)c1nc2cc3c(-c4ccncn4)n[nH]c3cc2[nH]1)c1ccccc1 [Example 57, (R)—N-(1-phenylethyl)-3-(pyrimidin-4-yl)-1,7-dihydroimidazo[4,5-f]indazole-6-carboxamide] | – | 1.43 | 3.51
CN(NC(=O)c1nc2cc3c(-c4ccncc4)n[nH]c3cc2[nH]1)c1ccccc1 [Example 77, N′-methyl-N′-phenyl-3-(pyridin-4-yl)-1,7-dihydroimidazo[4,5-f]indazole-6-carbohydrazide] | – | 0.85 | 2.18
CN(C)C[C@@H](NC(=O)c1nc2cc3c(-c4ccncc4)n[nH]c3cc2[nH]1)c1ccccc1 [Example 90, (S)—N-(2-(dimethylamino)-1-phenylethyl)-3-(pyridin-4-yl)-1,7-dihydroimidazo[4,5-f]indazole-6-carboxamide] | – | 1.67 | 1.77
O=C(NC(CCO)c1ccccc1)c1nc2cc3c(-c4ccncc4)n[nH]c3cc2[nH]1 (stereo not drawn) [Example 71, N-(3-hydroxy-1-phenylpropyl)-3-(pyridin-4-yl)-1,7-dihydroimidazo[4,5-f]indazole-6-carboxamide] | – | 0.8 | 2.18
O=C(CNC(=O)c1nc2cc3c(-c4ccncc4)n[nH]c3cc2[nH]1)c1ccccc1 [Example 72, N-(2-oxo-2-phenylethyl)-3-(pyridin-4-yl)-1,7-dihydroimidazo[4,5-f]indazole-6-carboxamide] | – | 0.24 | 2.5
C[C@@H](CNC(=O)c1nc2cc3c(-c4ccncc4)n[nH]c3cc2[nH]1)c1ccccc1 [Example 66, (R)—N-(2-phenylpropyl)-3-(pyridin-4-yl)-1,7-dihydroimidazo[4,5-f]indazole-6-carboxamide] | – | 0.83 | 1.52
Cc1ccc([C@@H](C)NC(=O)c2nc3cc4c(-c5ccncc5)n[nH]c4cc3[nH]2)cc1 [Example 6, (R)-3-(pyridin-4-yl)-N-(1-(p-tolyl)ethyl)-1,7-dihydroimidazo[4,5-f]indazole-6-carboxamide] | – | 0.84 | 2.09
O=C(c1nc2cc3c(-c4ccncc4)n[nH]c3cc2[nH]1)N1C[C@@H]1c1ccccc1 [Example 65, (S)-(2-Phenylaziridin-1-yl)(3-(pyridin-4-yl)-1,7-dihydroimidazo[4,5-f]indazol-6-yl)methanone] | – | 1.58 | 3.73
